Measured values taken from paper doi:10.1101/208439v1 (biorxiv, 2017).
Like-named read-outs stand apart in the source and are kept apart here.

What was measured:
NSD1 = biological target: T1, NSD1 (Homo sapiens, UniProt Q96L73); assay: HotSpot [3H]SAM filter-binding methyltransferase assay; format: biochemical; settings: nucleosomes, […] SAM, pH […] MgCl2, […] DTT, […] °C, single experiment
T1 construct: residues 1538-2696, N-terminal His tag, insect cell/baculovirus
T1 sequence (Q96L73 1538-2696): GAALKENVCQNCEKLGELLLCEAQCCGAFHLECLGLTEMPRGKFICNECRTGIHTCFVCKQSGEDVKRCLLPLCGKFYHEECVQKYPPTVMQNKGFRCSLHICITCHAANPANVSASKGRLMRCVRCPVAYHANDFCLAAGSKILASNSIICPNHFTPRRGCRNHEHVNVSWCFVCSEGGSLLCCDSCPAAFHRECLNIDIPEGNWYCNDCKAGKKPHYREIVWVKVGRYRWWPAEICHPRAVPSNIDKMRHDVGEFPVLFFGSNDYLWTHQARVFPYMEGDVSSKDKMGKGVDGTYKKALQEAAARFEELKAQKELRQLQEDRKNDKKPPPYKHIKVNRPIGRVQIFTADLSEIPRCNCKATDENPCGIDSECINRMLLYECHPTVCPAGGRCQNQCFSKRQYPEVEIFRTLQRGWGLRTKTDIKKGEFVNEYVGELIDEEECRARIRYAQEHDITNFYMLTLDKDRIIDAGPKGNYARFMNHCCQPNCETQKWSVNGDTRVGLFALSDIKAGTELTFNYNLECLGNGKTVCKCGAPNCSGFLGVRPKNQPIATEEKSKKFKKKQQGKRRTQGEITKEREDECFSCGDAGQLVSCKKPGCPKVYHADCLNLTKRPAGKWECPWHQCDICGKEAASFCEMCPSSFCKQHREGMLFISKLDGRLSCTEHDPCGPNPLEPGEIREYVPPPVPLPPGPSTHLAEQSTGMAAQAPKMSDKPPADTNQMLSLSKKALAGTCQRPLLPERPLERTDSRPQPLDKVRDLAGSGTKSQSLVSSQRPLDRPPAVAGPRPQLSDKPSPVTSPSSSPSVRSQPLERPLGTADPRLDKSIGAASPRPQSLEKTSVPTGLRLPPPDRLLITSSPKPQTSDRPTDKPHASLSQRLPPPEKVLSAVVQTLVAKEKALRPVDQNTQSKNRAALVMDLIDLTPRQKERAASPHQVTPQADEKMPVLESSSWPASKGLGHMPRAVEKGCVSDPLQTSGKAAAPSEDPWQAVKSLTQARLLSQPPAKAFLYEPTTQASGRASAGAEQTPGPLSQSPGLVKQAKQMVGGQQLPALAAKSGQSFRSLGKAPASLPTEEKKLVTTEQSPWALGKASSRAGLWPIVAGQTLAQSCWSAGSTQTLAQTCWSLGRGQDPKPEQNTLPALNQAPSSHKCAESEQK

DNMT1 = DNMT1 (Homo sapiens, UniProt P26358); assay: biochemical
Chain of DNMT1 (P26358 whole entry): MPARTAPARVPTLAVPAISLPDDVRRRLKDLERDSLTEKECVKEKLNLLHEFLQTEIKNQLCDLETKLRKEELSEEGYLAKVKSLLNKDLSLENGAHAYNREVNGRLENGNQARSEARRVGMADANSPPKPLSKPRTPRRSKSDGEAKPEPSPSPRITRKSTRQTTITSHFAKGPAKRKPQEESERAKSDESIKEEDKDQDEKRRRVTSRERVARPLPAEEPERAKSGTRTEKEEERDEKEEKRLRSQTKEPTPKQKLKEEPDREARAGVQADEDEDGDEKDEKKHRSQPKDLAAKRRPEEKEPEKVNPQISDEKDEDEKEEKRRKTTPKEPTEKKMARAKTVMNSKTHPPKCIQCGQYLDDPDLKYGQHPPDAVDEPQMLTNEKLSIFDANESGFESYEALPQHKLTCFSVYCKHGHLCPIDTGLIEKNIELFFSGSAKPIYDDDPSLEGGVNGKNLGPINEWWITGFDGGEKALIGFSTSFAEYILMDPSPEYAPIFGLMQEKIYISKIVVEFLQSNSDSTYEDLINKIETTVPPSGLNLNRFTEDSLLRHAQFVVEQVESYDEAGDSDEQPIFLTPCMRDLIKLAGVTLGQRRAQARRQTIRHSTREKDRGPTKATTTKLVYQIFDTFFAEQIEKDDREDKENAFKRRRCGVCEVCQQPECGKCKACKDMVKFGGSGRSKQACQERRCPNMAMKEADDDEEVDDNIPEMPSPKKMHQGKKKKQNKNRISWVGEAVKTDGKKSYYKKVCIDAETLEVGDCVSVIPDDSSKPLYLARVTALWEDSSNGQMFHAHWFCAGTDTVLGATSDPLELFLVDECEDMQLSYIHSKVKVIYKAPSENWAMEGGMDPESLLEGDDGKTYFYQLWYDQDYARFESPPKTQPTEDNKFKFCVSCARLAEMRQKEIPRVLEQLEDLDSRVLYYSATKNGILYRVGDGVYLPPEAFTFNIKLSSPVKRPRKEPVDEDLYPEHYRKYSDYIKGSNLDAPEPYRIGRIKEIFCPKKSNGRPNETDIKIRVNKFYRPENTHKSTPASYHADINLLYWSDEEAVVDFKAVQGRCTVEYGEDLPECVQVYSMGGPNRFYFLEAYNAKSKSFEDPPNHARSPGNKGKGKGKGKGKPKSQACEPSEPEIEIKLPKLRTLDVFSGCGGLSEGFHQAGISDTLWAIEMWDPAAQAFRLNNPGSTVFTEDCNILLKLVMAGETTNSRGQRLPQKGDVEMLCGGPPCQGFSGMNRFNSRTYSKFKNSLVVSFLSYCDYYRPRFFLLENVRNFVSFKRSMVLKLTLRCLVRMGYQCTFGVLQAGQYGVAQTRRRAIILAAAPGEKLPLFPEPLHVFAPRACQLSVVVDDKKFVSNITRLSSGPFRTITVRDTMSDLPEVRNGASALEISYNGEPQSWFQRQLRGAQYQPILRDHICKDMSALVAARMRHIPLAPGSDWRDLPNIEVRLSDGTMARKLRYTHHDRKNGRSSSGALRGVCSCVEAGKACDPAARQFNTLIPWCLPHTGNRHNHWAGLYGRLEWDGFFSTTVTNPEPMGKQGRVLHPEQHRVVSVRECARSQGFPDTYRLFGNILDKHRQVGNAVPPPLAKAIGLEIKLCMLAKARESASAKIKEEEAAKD

NSD2 = biological target: T2, NSD2 (Homo sapiens, UniProt O96028, T1150A); assay: HotSpot [3H]SAM filter-binding methyltransferase assay; format: biochemical
T2 construct: full length (residues 2-1365), N-terminal His tag, insect cell/baculovirus
T2 sequence (O96028 2-1365 T1150A): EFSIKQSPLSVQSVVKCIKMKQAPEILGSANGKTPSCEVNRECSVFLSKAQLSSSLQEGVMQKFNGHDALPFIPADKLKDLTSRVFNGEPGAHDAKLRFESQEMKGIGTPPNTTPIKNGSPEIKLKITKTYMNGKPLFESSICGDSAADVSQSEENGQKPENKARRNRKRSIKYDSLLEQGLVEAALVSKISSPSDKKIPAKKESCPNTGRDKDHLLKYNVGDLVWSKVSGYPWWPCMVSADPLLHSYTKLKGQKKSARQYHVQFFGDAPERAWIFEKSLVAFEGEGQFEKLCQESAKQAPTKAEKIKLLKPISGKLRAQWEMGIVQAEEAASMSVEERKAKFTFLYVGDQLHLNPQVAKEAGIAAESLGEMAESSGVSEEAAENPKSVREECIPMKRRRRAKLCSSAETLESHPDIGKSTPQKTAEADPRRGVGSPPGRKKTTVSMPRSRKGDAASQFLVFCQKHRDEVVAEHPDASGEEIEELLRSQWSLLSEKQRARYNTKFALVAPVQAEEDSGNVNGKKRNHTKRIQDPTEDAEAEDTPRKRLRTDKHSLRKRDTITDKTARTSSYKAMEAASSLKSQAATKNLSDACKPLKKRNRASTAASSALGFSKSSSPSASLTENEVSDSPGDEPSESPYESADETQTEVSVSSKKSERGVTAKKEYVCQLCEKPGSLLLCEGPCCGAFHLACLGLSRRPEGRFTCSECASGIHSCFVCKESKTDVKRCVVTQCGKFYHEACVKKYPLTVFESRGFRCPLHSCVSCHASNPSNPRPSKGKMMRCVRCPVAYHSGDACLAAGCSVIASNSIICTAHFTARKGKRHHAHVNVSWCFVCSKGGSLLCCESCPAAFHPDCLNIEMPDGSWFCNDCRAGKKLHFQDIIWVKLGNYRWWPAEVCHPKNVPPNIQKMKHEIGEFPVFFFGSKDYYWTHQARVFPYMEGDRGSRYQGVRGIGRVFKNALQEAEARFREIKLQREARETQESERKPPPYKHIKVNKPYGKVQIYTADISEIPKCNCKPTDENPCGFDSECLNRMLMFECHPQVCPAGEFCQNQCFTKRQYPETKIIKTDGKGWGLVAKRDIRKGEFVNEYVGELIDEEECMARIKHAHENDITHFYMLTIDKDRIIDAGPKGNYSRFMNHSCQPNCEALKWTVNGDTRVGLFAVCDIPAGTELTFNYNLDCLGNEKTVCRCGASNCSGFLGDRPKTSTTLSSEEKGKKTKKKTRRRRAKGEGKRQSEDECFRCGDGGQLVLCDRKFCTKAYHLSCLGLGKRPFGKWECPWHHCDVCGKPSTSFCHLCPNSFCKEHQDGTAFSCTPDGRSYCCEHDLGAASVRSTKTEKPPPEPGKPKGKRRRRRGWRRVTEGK

DNMT3a = DNMT3a (Homo sapiens, UniProt Q9Y6K1); assay: biochemical
Chain of DNMT3a (Q9Y6K1 whole entry, looked up): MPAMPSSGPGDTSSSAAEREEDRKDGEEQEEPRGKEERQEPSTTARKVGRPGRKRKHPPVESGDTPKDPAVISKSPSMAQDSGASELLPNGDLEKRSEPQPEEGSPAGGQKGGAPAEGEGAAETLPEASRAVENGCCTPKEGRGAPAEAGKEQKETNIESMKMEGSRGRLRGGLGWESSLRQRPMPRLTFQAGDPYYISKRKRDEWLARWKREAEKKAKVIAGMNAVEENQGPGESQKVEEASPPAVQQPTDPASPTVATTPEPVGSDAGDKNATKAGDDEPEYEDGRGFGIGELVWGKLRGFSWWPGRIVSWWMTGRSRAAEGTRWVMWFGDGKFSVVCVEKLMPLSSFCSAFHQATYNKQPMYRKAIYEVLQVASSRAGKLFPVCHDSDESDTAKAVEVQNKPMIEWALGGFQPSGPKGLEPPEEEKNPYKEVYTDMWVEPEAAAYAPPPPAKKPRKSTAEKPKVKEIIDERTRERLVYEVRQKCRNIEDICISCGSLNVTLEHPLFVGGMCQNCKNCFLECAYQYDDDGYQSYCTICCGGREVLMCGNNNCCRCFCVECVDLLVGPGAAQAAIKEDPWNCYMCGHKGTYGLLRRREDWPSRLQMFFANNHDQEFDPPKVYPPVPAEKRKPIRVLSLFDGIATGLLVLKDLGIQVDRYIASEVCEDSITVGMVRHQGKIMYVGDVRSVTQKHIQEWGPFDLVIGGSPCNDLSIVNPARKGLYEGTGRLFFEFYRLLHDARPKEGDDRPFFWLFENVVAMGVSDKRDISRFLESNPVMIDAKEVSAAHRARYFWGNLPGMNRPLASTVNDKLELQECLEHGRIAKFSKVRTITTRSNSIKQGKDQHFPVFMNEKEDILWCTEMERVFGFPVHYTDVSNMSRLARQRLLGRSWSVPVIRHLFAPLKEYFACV

[1] = read-out: DA3003-1 IC50, inhibitor
[2] = nucleosomes, […] SAM, pH […] MgCl2, […] DTT, […] °C, single experiment

| IC50 (NSD1) [µM] | IC50 (DNMT1; [1]) [µM] | IC50 (NSD2; [2]) [µM] | IC50 (DNMT3a; [1]) [µM] | IC50 (DNMT1) [µM] | IC50 (NSD2) [µM] | IC50 (DNMT3a) [µM] | Compound |
| --- | --- | --- | --- | --- | --- | --- | --- |
| 0.11 | 1.7 | 0.17 | 1.1 |  |  |  | O=C1C(Cl)=C(NCCN2CCOCC2)C(=O)c2ncccc21 [DA3003-1] |
| 2.4 |  |  |  | 44 | 2.3 | 18 | CC1(C)CCC(CN2CCN(c3ccc(C(=O)NS(=O)(=O)c4ccc(NCC5CCOCC5)c([N+](=O)[O-])c4)c(Oc4cnc5[nH]ccc5c4)c3)CC2)=C(c2ccc(Cl)cc2)C1 [ABT-199] |
| 12 |  | 8 |  | 12 |  | 16 | COc1cccc(-n2nc(C(=O)O)cc2-c2ccc(C3CCCCC3)c(Cl)c2)c1 [TC LPA5 4] |
